Measurements reported in patent publication US7563899B2, “(S)-N-methylnaltrexone” (Progenics Pharmaceuticals, Inc., priority 2005, dated 2009).

What was measured:
[1] = tested on: gastrointestinal transit in rats; assay: Gastrointestinal transit (charcoal motility) in rats, alone or before morphine; assay type: in vivo, rat; conditions: for Mean Motility: ratio of length of charcoal transit/total intestine length, * p<0.05 vs vehicle
Description: F. et al J. Pharmacol. Exptl. Therap. 133: 400-408, 1961; D. E. Gmerek, et al J. Pharmacol. Exptl. Ther. 236: 8-13, 1986; and O. Yamamoto et al Neurogastroenterol. Motil. 10: 523-532, 1998.
A control group of rats received 2 mL/kg of a 0.9% saline solution (n=10). After 15 minutes, rats were subcutaneously injected with saline (1 mL/kg) or morphine (3 mg/kg). A 10% suspension of activated charcoal in 0.25% methylcellulose was administered orally at 10 mL/kg to the rats 20 minutes (±2 minutes) after the subcutaneous dose of morphine or saline. The rats were euthanized 25 minutes (±3 minutes) after receiving the charcoal and the intestines were removed and lightly stretched on moist paper along a meterstick. The small intestine from pyloric sphincter to caecum was measured and the distance traveled by the charcoal as a fraction of that length was evaluated for each rat.
Statistically significant effects were determined by ANOVA with Tukey HSD Multiple Comparison Test. Differences with p values <0.05 were considered statistically significant.
Values for charcoal motility were expressed as a percent effect and were calculated in the following manner: The individual distance traveled by the charcoal in centimeters was divided by the total length of the intestines in centimeters (pyloric sphincter to caecum) for each rat. Mean values were calculated for each group, and the percent effect was calculated using the following formula: […]

[2] = biological target: μ-opioid receptors in the guinea pig ileum (Cavia porcellus, UniProt A0ACM8Q262); assay: Guinea pig ileum bioassay, test for agonist activity (inhibition of electrically evoked twitch contractions); conditions: mean, n=2; for Response to the compound (decrease in twitch contraction amplitude): percent of control response to DAMGO 1.0E−07 M
Description: Experimental Conditions. Segments of guinea pig terminal ileum were suspended in 20-ml organ baths filled with an oxygenated (95% O2 and 5% CO2) and pre-warmed (37° C.) physiological salt solution of the following composition (in mM): NaCl 118.0, KCl 4.7, MgSO4 1.2, CaCl2 2.5, KH2PO4 1.2, NaHCO3 25.0 and glucose 11.0 (pH 7.4). Additional experimental conditions were as described in Hutchinson et al. (1975) Brit. J. Pharmacol., 55: 541-546.
Indomethacin (1 μM), nor-binaltorphimine (0.01 μM), methysergide (1 μM), ondansetron (10 μM) and GR113808 (0.1 μM) were also present throughout the experiments to prevent prostanoid release and to block the k-opioid, 5-HT2, 5-HT3 and 5-HT4 receptors, respectively. The tissues were connected to force transducers for isometric tension recordings. They were stretched to a resting tension of 1 g then allowed to equilibrate for 60 min during which time they were washed repeatedly and the tension readjusted. Thereafter, they were stimulated electrically with pulses of minimal intensity to trigger maximal contractions and 1 ms duration, delivered at 0.1 Hz by a constant current stimulator.
Test for agonist activity. […] The different concentrations were added cumulatively and each was left in contact with the tissues until a stable response was obtained or for a maximum of 15 min.
Analysis and Expression of Results. The parameter measured was the maximum change in the amplitude of the electrically-evoked twitch contractions induced by each compound concentration.

[3] = biological target: T1, human μ (mu, MOP) receptor (Homo sapiens, UniProt P35372); assay: cAMP assay in CHO cells expressing human mu receptor, agonist assay; assay type: cell-based
T1 construct: expressed in transfected cells; host or cells: CHO cells

[4] = 1 mg/kg sc + Morphine 3 mg/kg sc
[5] = 3 mg/kg sc + Morphine 3 mg/kg sc
[6] = 10 mg/kg sc + Morphine 3 mg/kg sc

Chain of μ-opioid receptors in the guinea pig ileum (A0ACM8Q262 1-400): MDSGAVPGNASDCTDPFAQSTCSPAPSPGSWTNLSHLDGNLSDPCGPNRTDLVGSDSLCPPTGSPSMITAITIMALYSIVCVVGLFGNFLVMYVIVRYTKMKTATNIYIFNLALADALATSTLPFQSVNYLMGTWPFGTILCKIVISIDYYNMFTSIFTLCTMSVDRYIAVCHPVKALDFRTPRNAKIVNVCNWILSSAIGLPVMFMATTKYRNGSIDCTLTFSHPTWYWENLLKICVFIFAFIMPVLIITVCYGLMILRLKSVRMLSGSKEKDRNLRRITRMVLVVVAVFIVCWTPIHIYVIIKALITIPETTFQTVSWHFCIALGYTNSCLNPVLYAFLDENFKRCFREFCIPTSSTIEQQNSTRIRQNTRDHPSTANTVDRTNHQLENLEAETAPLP
T1 sequence (P35372 whole entry): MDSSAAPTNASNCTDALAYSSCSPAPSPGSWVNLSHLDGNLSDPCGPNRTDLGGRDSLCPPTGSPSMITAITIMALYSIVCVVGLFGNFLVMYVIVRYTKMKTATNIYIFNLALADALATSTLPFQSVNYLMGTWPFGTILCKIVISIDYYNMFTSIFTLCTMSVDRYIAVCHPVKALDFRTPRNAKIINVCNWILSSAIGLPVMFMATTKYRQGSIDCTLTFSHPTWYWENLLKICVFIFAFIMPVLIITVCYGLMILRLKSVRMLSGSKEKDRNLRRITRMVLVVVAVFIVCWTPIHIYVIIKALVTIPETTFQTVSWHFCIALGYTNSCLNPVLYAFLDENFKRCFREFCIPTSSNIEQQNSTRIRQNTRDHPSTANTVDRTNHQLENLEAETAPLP

In the case of `CN1CC[C@]23c4c5ccc(O)c4O[C@H]2[C@@H](O)C=C[C@H]3[C@H]1C5` [Morphine, morphine], the “Percent Decrease” value ([1]; Saline + Morphine 3 mg/kg sc) is reported as 33%, the “Mean Motility” value ([1]; Saline + Morphine 3 mg/kg sc) is reported as 0.407* and the “effect on GI transit when administered alone” value ([1]; rats, sc) is reported as “decreased GI motility”.

With `C[N+]1(CC2CC2)CC[C@]23c4c5ccc(O)c4O[C@H]2C(=O)CC[C@@]3(O)[C@H]1C5` (stereo partly drawn) [R-MNTX, (R)-N-methylnaltrexone] the “Percent Decrease” value [1, 4] was 24%, the “Mean Motility” value [1, 4] was 0.463* and the “Percent Decrease” value [1, 5] was 8%. For the same compound, the “Mean Motility” value [1, 5] was 0.558, the “Percent Decrease” value [1, 6] was 8% and the “Mean Motility” value [1, 6] was 0.557. For the same compound, the “Percent Decrease” value ([1]; 10 mg/kg sc + Saline) was 6%, the “Mean Motility” value ([1]; 10 mg/kg sc + Saline) was 0.572 and the “effect on GI transit in combination with / prior to morphine” value ([1]; rats, sc, 15 minutes before morphine 3 mg/kg) was “reversed the GI slowing effect of morphine”. For the same compound, the “effect on GI transit when administered alone” value ([1]; rats, sc) was “no effect on GI transit”.

In the case of `C[C@@H](NC(=O)[C@@H](N)Cc1ccc(O)cc1)C(=O)NCC(=O)N(C)[C@@H](Cc1ccccc1)C(=O)NCCO` [DAMGO, reference compound], the “Response to the compound (decrease in twitch contraction amplitude)” value ([2]; 1.0E−07 M) is reported as 99%, the “Response to the compound (decrease in twitch contraction amplitude)” value ([2]; 1.0E−08 M) is reported as 49% and the “Response to the compound (decrease in twitch contraction amplitude)” value ([2]; 1.0E−09 M) is reported as 12%. The “Response to the compound +naloxone” value ([2]; compound 1.0E−07 M + naloxone 1.0E−07 M, percent of control response to DAMGO) was 3%, the “cAMP agonist assay value (Table IX.1)” value ([3]; log{M} conc −4.0) was −1 and the “cAMP agonist assay value (Table IX.1)” value ([3]; log{M} conc −5.0) was 2. The “cAMP agonist assay value (Table IX.1)” value ([3]; log{M} conc −6.0) was 1, the “cAMP agonist assay value (Table IX.1)” value ([3]; log{M} conc −7.0) was 2 and the “cAMP agonist assay value (Table IX.1)” value ([3]; log{M} conc −8.0) was 68. For the same compound, the “cAMP agonist assay value (Table IX.1)” value ([3]; log{M} conc −9.0) was 63, the “cAMP agonist assay value (Table IX.1)” value ([3]; log{M} conc −10.0) was 88 and the “cAMP agonist assay value (Table IX.1)” value ([3]; log{M} conc −11.0) was 105.
